Data published in PubChem BioAssay AID588437 (Southern Research Specialized Biocontainment Screening …, 2011).
“And” between values parts separate entries of the source, which are not always exact repeats. Identical values can stand only once. Results filed as inconclusive are left out. The source made the active and inactive calls. No rule for the calls is given here.

Legend:
[1] = test system: Mycobacterium tuberculosis H37Rv growth inhibition, no glycerol; assay: Mycobacterium tuberculosis h37rv growth inhibition in absence of glycerol, confirmatory dose response (AID 588437); conditions: for IC50: measured here: IC50 growth inhibition replicates
[2] = as above; conditions: Mycobacterium tuberculosis H37Rv growth inhibition, no glycerol

Row | Structure (SMILES) | IC50 [1] | IC90 [1] [µM] | outcome [2]
1 | CC1CC(C)CN(C(=O)c2ccc(CNc3c(N4CCCC4)c(=O)c3=O)cc2)C1 (centres undefined) | 22.8 µM |  | 
2 | CC1CCCN(C(=O)c2ccc(CNc3c(N4CCCCC4)c(=O)c3=O)cc2)C1 (centres undefined) | 14.1 µM |  | 
3 | O=C(C1CCC(CNc2c(N3CCCCC3)c(=O)c2=O)CC1)N1CCCCC1 (centres undefined) | 59.6 µM |  | 
4 | COC(=O)CSc1ncnc2c1cnn2-c1ccc(C)cc1C | 5.41 µM | 6.65 | 
5 | CC(C)OC(=O)CSc1ncnc2c1cnn2-c1ccccc1 | 29.5 µM |  | 
6 | CCC(C)NC(=O)CSc1nc2ccccc2c(=O)[nH]1 (centres undefined) | 2.98 µM | 4.01 | 
7 | Cc1cccc(N2CCN(C(=O)c3ccc(CNc4c(N5CCC(C)CC5)c(=O)c4=O)cc3)CC2C)c1 (centres undefined) | 40.9 µM | 51.8 | 
8 | CCOC(=O)N1CCC(Nc2c(Nc3cccc(CC)c3)c(=O)c2=O)CC1 | 65.1 µM | 85.3 | 
9 | O=C(c1ccc(CNc2c(N3CCCC3)c(=O)c2=O)cc1)N1CC=C(c2ccccc2)CC1 | 12.5 µM and 8.13 µM |  | 
10 | COc1ccc(N2CCN(C(=O)c3ccc(CNc4c(N5CCOCC5)c(=O)c4=O)cc3)CC2)cc1 | 21.7 µM and 18.5 µM |  | 
11 | CC1CCN(C(=O)c2ccc(CNc3c(N4CCCC4)c(=O)c3=O)cc2)CC1 | 20.3 µM |  | 
12 | Cc1cccc(N2CCN(C(=O)c3ccc(CNc4c(N5CCC(C)CC5)c(=O)c4=O)cc3)CC2)c1C |  |  | inactive
13 | CC1CC(C)CN(C(=O)C2CCC(CNc3c(N4CCCCC4)c(=O)c3=O)CC2)C1 (centres undefined) | 26.9 µM and 35.5 µM |  | 
14 | CCOC(=O)CSc1ncnc2c1cnn2-c1ccccc1 | 30.2 µM | 47.7 | 
15 | O=C(c1ccc(CNc2c(N3CCCC3)c(=O)c2=O)cc1)N1CCc2ccccc2C1 | 13.4 µM |  | 
16 | O=C(NCCc1ccc(Cl)cc1)c1ccc(CNc2c(N3CCOCC3)c(=O)c2=O)cc1 | 11 µM and 11.2 µM |  | 
17 | CC1CCCN(C(=O)C2CCC(CNc3c(N4CCCCC4)c(=O)c3=O)CC2)C1 (centres undefined) | 64.3 µM |  | 
18 | O=C(c1ccc(CNc2c(N3CCOCC3)c(=O)c2=O)cc1)N1CC=C(c2ccccc2)CC1 | 4.83 µM | 15.4 | 
19 | O=C(NCCc1ccc(Cl)cc1)C1CCC(CNc2c(N3CCCCC3)c(=O)c2=O)CC1 (centres undefined) | 22.4 µM |  | 
20 | CC(=O)c1ccc(NC(=O)c2ccc(CNc3c(N4CCOCC4)c(=O)c3=O)cc2)cc1 | > 98.8 µM |  | 
21 | CCOC(=O)CSc1ncnc2c1cnn2-c1ccc(C)cc1C | 5 µM | 7.19 | 
22 | CCOc1ccc(NC(=O)c2ccc(CNc3c(N4CCCC4)c(=O)c3=O)cc2)cc1 |  |  | inactive
